According to patent US10233186B2, “Inhibitors of activin receptor-like kinase” (BLUEPRINT MEDICINES CORPORATION, priority 2016, dated 2019):
pIC50: −log10 of the molar value.

Key:
[1] = molecular target: T1, ALK2 R206H (GST-tagged mutant ALK2) (Homo sapiens, UniProt Q04771, R206H); assay: ALK binding assay (LANTHASCREEN TR-FRET competitive binding, displacement of Kinase Tracer 178); settings: ALK2 R206H, LANTHASCREEN TR-FRET competitive binding; read-out: Binding Assay (IC50)
T1 construct: purchased Carna Bioscience or ThermoFisher 09-148 or PV6232
T1 sequence (Q04771 21-509 R206H): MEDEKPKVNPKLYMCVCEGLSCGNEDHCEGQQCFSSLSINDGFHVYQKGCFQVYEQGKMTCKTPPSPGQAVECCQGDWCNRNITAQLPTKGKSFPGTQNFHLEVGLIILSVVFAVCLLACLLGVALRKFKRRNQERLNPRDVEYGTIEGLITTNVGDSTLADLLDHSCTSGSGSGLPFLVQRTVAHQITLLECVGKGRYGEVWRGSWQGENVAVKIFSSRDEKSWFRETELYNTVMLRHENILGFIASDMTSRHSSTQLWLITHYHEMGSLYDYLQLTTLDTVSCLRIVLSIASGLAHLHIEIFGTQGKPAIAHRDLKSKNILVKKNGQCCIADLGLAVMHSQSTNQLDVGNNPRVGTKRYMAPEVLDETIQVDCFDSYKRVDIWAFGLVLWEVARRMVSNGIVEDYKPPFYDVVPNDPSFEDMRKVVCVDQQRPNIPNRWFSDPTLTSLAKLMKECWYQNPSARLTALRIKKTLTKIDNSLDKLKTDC
Experimental: Binding assays were conducted using the LANTHASCREEN® technology (ThermoFisher Scientific). LANTHASCREEN® is a competitive binding, displacement assay where the assumed steady state occupancy of the binding site is measured using a time-resolved, fluorescence energy transfer (TR-FRET) readout between a fluorescent tracer and Europium (Eu)-tagged antibody specific for the kinase or expression tag (e.g. GST) of interest. Displacement of the tracer by a compound of the disclosure reduces, and is directly proportional to, the TR-FRET between the tracer and the antibody. Tracer was used at a concentration equal to or near to its Kd for the kinase.
In all cases, the kinase (2-5 nM) was mixed with Eu-tagged antibody (10 nM) mix and tracer (50 nM) were incubated with test compound titrations prepared in 100% DMSO (1% DMSO final) for 30 minutes at room temperature. All reagents and compounds were dissolved in Kinase Buffer A (ThermoFisher) to achieve the final concentration. […] This readout was normalized to 0% and 100% inhibited control wells, plotted against inhibitor concentration, and fitted to a 4-parameter log dose response curve.
(§1) Blank values in the table indicate that the particular compound was not tested in this assay.

[2] = molecular target: T2, human ALK2 R206H (Homo sapiens, UniProt Q04771, R206H); assay: Cell-based ALK2-R206H cell activity assay (Smad1-Ser463/Ser465 phosphorylation by AlphaLISA in HEK293-ALK2-R206H cells); settings: read-out: Cell Line (Cell Assay IC50)
T2 construct: expressed in transfected cells; host or cells: HEK293 (ATCC CRL1573), lentivirus transduction, blasticidin selection
T2 sequence (Q04771 21-509 R206H): T1 sequence (Q04771 21-509 R206H)
Experimental: A HEK293 (ATCC, Cat^# CRL1573) based stable cell line expressing human ALK2 R206H cDNA (synthesized by GeneScript, Piscataway, N.J.) and a FLAG tag at the C-terminus was generated by lentivirus transduction and subsequent blasticidin (Life Technologies, Cat^#-A1113902) selection at 10 μg/ml for >2 wks. This cell line was named HEK293-ALK2-R206H.
Test compounds were first diluted to 4 mM or 0.4 mM and then serially diluted 3-fold into 10 different concentrations using DMSO. […] Two μl of the diluted compounds were then dispensed into the HEK293-ALK2-R206H cell-containing wells of the microplates in duplicates. In this way, each compound was tested in 10 doses (3-fold serial dilution with the top concentration being 10 μM or 1 μM). Liquid handling was achieved using a Bravo Automated Liquid Handling Platform (Agilent Technologies). DMSO without compound was used as a negative control. The positive control was 1 μM LDN193189, a known bone morphogenetic protein (BMP inhibitor).
The 10-point dose response curve was used to calculate the IC50 values.
as §1

Row | SMILES | pIC50 [1] | pIC50 [2]
1 | CCNC(=O)N1CCN(c2ccnn3cc(-c4ccc(C5CCN(C(C)C)CC5)cn4)cc23)CC1 [Compound 290] | > 8.00 | > 7.00
2 | CO[C@]1(c2ccc(-c3cc4c(N5CCN(C(=O)NC(C)C)CC5)ccnn4c3)cc2F)CCCN(C(C)C)C1 [Compound 723] | > 8.00 | > 7.00
3 | N#C[C@H]1CC[C@H](C(=O)N2CCN(c3ccnn4cc(-c5ccc(N6CCNCC6)cc5)cc34)CC2)CC1 [Compound 371] | > 8.00 | > 7.00
4 | CC(C)(C)OC(=O)N1CCC(N)(c2ccc(-c3cc4c(N5CCN(C(=O)C6CC6)CC5)ccnn4c3)cc2)CC1 [Compound 732] | > 8.00 | 6.30 to 7.00
5 | COC1(c2ccc(-c3cc4c(N5CCN(C(=O)OC6COC6)CC5)ccnn4c3)nc2)CCNCC1 [Compound 609] | > 8.00 | > 7.00
6 | CCOC(=O)N1CCN(c2ccnn3cc(-c4ccc(C(N)C(C)(C)O)cc4)cc23)CC1 (stereo not drawn) [Compound 764] | > 8.00 | > 7.00
7 | CC(C)N1CC2(CN(c3ccc(-c4cc5c(N6CCN(C(=O)[C@H]7CC[C@H](C#N)CC7)CC6)ccnn5c4)cc3)C2)C1 [Compound 442] | > 8.00 | > 7.00
8 | N#C[C@H]1C[C@H](C(=O)N2CCN(c3ccnn4cc(-c5ccc([C@@H]6CCCNC6)cn5)cc34)CC2)C1 [Compound 500] | > 8.00 | 6.30 to 7.00
9 | CC(C)N1CCN(c2ccc(-c3cc4c(N5CCN(C(=O)[C@H]6C[C@H](C#N)C6)CC5)ccnn4c3)cc2)CC1 [Compound 413] | > 8.00 | > 7.00
10 | O=C([C@H]1C[C@H]1F)N1CCN(c2ccnn3cc(-c4ccc(N5CCNCC5)cc4)cc23)CC1 [Compound 185] | > 8.00 | > 7.00
11 | CCOC(=O)N1CCN(c2ccnn3cc(-c4ccc(C5(OCC)CCN(C(C)C)CC5)cc4)cc23)CC1 [Compound 831] | > 8.00 | > 7.00
12 | O=C(OC1COC1)N1CCN(c2ccnn3cc(-c4ccc([C@H]5CCCN5)cn4)cc23)CC1 [Compound 477] | > 8.00 | > 7.00
13 | CC[C@H](C)N1CCC(c2ccc(-c3cc4c(N5CCN(C(=O)C6CC6)CC5)ccnn4c3)cc2)CC1 [Compound 564] | > 8.00 | > 7.00
14 | CC(N)(CO)c1ccc(-c2cc3c(N4CCN(C(=O)OC5COC5)CC4)ccnn3c2)cc1 (stereo not drawn) [Compound 771] | > 8.00 | > 7.00
15 | CC(C)N1CCC[C@H](c2ccc(-c3cc4c(N5CCN(C(=O)C6CC6)CC5)ccnn4c3)cc2)C1 [Compound 247] | > 8.00 | > 7.00
16 | CCNC(=O)N1CCN(c2ccnn3cc(-c4ccc([C@]5(OCC)CCCN(C(C)C)C5)cc4)cc23)CC1 [Compound 673] | > 8.00 | > 7.00
17 | O=C(C1CCC1)N1CCN(c2ccnn3cc(-c4ccc(N5CCNCC5)cc4)cc23)CC1 [Compound 154] | > 8.00 | 6.30 to 7.00
18 | CCN1CC[C@@H](c2ccc(-c3cc4c(N5CCN(C(=O)C6CC6)CC5)ccnn4c3)cc2)C(F)C1 (stereo partly drawn) [Compound 280] | 7.30 to 8.00 | 6.30 to 7.00
19 | CC(C)N1CCC(c2ccc(-c3cc4c(N5CCN(C(=O)Nc6ccccc6)CC5)ccnn4c3)cc2)CC1 [Compound 838] | > 8.00 | 6.30 to 7.00
20 | CC(C)N1CCN(c2ccc(-c3cc4c(N5CCN(C(=O)[C@@H]6C[C@H]6F)CC5)ccnn4c3)cc2)CC1 [Compound 349] | > 8.00 | > 7.00
21 | O=C(C1CC1)N1CCN(c2ccnn3cc(-c4ccc([C@]5(F)CCCNC5)cc4)cc23)CC1 [Compound 179] | > 8.00 | > 7.00
22 | CC(C)N1CCCC(c2ccc(-c3cc4c(N5CCN(C(=O)[C@H]6C[C@H](O)C6)CC5)ccnn4c3)cc2)C1 (stereo partly drawn) [Compound 381] | > 8.00 | > 7.00
23 | CCO[C@@]1(c2ccc(-c3cc4c(N5CCN(C(=O)OC6COC6)CC5)ccnn4c3)nc2)CCCNC1 [Compound 819] | > 8.00 | > 7.00

Row | SMILES | pIC50 [1] | pIC50 [2]
24 | N#C[C@H]1C[C@@H]1C(=O)N1CCN(c2ccnn3cc(-c4ccc(C5(F)CCCNC5)cc4)cc23)CC1 (stereo partly drawn) [Compound 258] | > 8.00 | > 7.00
25 | CC(C)NC(=O)N1CCN(c2ccnn3cc(-c4ccc(C5(COC(F)F)CCN(C(C)C)CC5)cc4)cc23)CC1 [Compound 887] | > 8.00 | > 7.00
26 | CCN1CC(c2ccc(-c3cc4c(N5CCN(C(=O)C6CC6)CC5)ccnn4c3)cc2)C1 [Compound 124] | > 8.00 | > 7.00
27 | CCOC(=O)N1CCN(c2ccnn3cc(-c4ccc([C@@]5(C)CN(C(C)C)CCN5)cc4)cc23)CC1 [Compound 597] | > 8.00 | > 7.00
28 | CC(C)N1CC(Oc2ccc(-c3cc4c(N5CCN(C(=O)C6CC6)CC5)ccnn4c3)cc2)C1 [Compound 220] | > 8.00 | –
29 | CCN1CCN(c2ccc(-c3cc4c(N5CCN(C(=O)C6(F)CC6)CC5)ccnn4c3)cc2)CC1 [Compound 294] | 7.30 to 8.00 | –
30 | CC(C)N1CCC(c2ncc(-c3cc4c(N5CCN(C(=O)C6CC6)CC5)ccnn4c3)cn2)CC1 [Compound 525] | > 8.00 | –
31 | O=C(C1CC1)N1CCN(c2ccnn3cc(-c4ncc5n4CCNC5)cc23)CC1 [Compound 101] | < 7.30 | –
32 | CCN1C[C@H]2CN(c3ccnn4cc(-c5ccc(N6CCN(C(C)C)CC6)cc5)cc34)CCN2C1=O [Compound 331] | 7.30 to 8.00 | –
33 | CCN1CCN(c2ccc(-c3cc4c(N5CCN(C(=O)N6CC(COC)C6)CC5)ccnn4c3)cc2)CC1 [Compound 425] | < 7.30 | –
34 | CC(C)N1CCN(c2cnc(-c3cc4c(N5CCN(C(=O)C6CC6)CC5)ccnn4c3)nc2)CC1 [Compound 528] | 7.30 to 8.00 | –
35 | CCN1CCN(c2ccc(-c3cc4c(N5CCN(C(=O)C6(c7cccnc7)CC6)CC5)ccnn4c3)cc2)CC1 [Compound 433] | < 7.30 | –
36 | O=C(C1CC1)N1CCN(c2ccnn3cc(-c4ccc(OCCN5CCNCC5)cc4)cc23)CC1 [Compound 273, cyclopropyl(4-(6-(4-(2-(piperazin-1-yl)ethoxy)phenyl)pyrrolo[1,2-b]pyridazin-4-yl)piperazin-1-yl)methanone] | 7.30 to 8.00 | –
37 | NC(CO)Cc1ccc(-c2cc3c(N4CCN(C(=O)C5CC5)CC4)ccnn3c2)cc1 (stereo not drawn) [Compound 757] | > 8.00 | –
38 | CCN1CCN(c2ccc(-c3cc4c(N5CCN(C(C)=O)CC5)ccnn4c3)cc2)CC1 [Compound 136] | 7.30 to 8.00 | –
39 | CCN1CCC(n2cc(-c3cc4c(N5CCN(C(=O)C6CC6)CC5)ccnn4c3)cn2)C1 (stereo not drawn) [Compound 139] | > 8.00 | –
40 | CCN1CCC(n2cc(-c3cc4c(N5CCN(C(=O)C6CC6)CC5)ccnn4c3)cn2)CC1 [Compound 183] | 7.30 to 8.00 | –
41 | O=C(C1CC1)N1CCN(c2ccnn3cc(-c4ccc(NC5=NCCN5)cc4)cc23)CC1 [Compound 121, cyclopropyl(4-(6-(4-(4,5-dihydro-1H-imidazol-2-ylamino)phenyl)pyrrolo[1,2-b]pyridazin-4-yl)piperazin-1-yl)methanone] | > 8.00 | –
42 | Cc1nc(C2CCNCC2)sc1-c1cc2c(N3CCN(C(=O)C4CC4)CC3)ccnn2c1 [Compound 190] | > 8.00 | –
43 | CC(c1ccc(-c2cc3c(N4CCN(C(=O)C5CC5)CC4)ccnn3c2)cc1)N1CCCC1 (stereo not drawn) [Compound 471] | < 7.30 | –
44 | CCNC(=O)N1CCN(c2ccnn3cc(-c4cnc(C5CCN(C(C)C)CC5)nc4)cc23)CC1 [Compound 547] | > 8.00 | –
45 | CCOC1(c2ccc(-c3cc4c(N5CCN(C(=O)OC6COC6)CC5)ccnn4c3)nc2)CCN(C(C)CF)CC1 (stereo not drawn) [Compound 881] | > 8.00 | –
